Assay results as given in PubChem BioAssay (NCI).
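1) Cells in 96-well plates. 2) Compound, 48 h, 5 concentrations. 3) Linear interpolation between surrounding doses. 4) Unreached endpoint = highest concentration. Definition used: TGI = concentration required for complete inhibition of growth.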

Columns and labels:
Test in all cases: growth of human tumour cells (NCI), 48 h
[1] = test system: HCC-2998 colon
[2] = test system: OVCAR-3 ovarian
[3] = test system: RXF-631 renal
[4] = test system: 786-0 renal
[5] = test system: OVCAR-8 ovarian
[6] = test system: SNB-75 CNS
[7] = test system: IGROV1 ovarian
[8] = test system: CCRF-CEM leukemia
[9] = test system: M14 melanoma
[10] = test system: A498 renal
[11] = test system: SNB-78 CNS
[12] = test system: CAKI-1 renal
[13] = test system: TK-10 renal
[14] = test system: DMS 114 small cell lung
[15] = test system: HCT-15 colon
[16] = test system: SK-OV-3 ovarian
[17] = test system: RXF 393 renal
[18] = test system: HOP-18 NSCLC
[19] = test system: DLD-1 colon
[20] = test system: SF-539 CNS
[21] = test system: LOX IMVI melanoma
[22] = test system: HT29 colon
[23] = test system: KM20L2 colon
[24] = test system: COLO 205 colon
[25] = test system: SW-620 colon
[26] = test system: K-562 leukemia
[27] = test system: A549 NSCLC
[28] = test system: NCI-H23 lung
[29] = test system: RPMI-8226 leukemia
[30] = test system: U251 CNS
[31] = test system: M19-MEL melanoma
[32] = test system: HL-60(TB) leukemia
[33] = test system: LXFL 529 NSCLC
[34] = test system: OVCAR-4 ovarian
[35] = test system: UACC-62 melanoma
[36] = test system: ACHN renal
[37] = test system: HOP-92 NSCLC
[38] = test system: SK-MEL-28 melanoma
[39] = test system: SF-295 CNS
[40] = test system: UACC-257 melanoma
[41] = test system: SN12C renal
[42] = test system: HOP-62 NSCLC
[43] = test system: DMS 273 small cell lung
[44] = test system: NCI-H460 lung
[45] = test system: EKVX NSCLC
[46] = test system: HCT-116 colon
[47] = test system: SK-MEL-5 melanoma
[48] = test system: SNB-19 CNS
[49] = test system: SK-MEL-2 melanoma
[50] = test system: UO-31 renal
[51] = test system: MALME-3M melanoma
[52] = test system: KM12 colon
[53] = test system: MOLT-4 leukemia
[54] = test system: OVCAR-5 ovarian
[55] = test system: XF 498 CNS
[56] = test system: SF-268 CNS

COc1cc(Cl)c2c3c(c(C(C)=O)oc13)CCC2
TGI [1]: > 100 µM | TGI [2]: > 100 µM | TGI [3]: > 100 µM | TGI [4]: > 100 µM | TGI [5]: > 100 µM | TGI [6]: > 100 µM | TGI [7]: > 100 µM | TGI [8]: > 100 µM | TGI [9]: > 100 µM | TGI [10]: > 100 µM | TGI [11]: > 100 µM | TGI [12]: > 100 µM | TGI [13]: > 100 µM | TGI [14]: > 100 µM | TGI [15]: > 100 µM | TGI [16]: > 100 µM | TGI [17]: > 100 µM | TGI [18]: > 100 µM | TGI [19]: > 100 µM | TGI [20]: > 100 µM | TGI [21]: > 100 µM | TGI [22]: > 100 µM | TGI [23]: > 100 µM | TGI [24]: > 100 µM | TGI [25]: > 100 µM | TGI [26]: > 100 µM | TGI [27]: > 100 µM | TGI [28]: > 100 µM | TGI [29]: > 100 µM | TGI [30]: > 100 µM | TGI [31]: > 100 µM | TGI [32]: > 100 µM | TGI [33]: > 100 µM | TGI [34]: > 100 µM | TGI [35]: > 100 µM | TGI [36]: > 100 µM | TGI [37]: > 100 µM | TGI [38]: > 100 µM | TGI [39]: > 100 µM | TGI [40]: > 100 µM | TGI [41]: > 100 µM | TGI [42]: > 100 µM | TGI [43]: > 100 µM | TGI [44]: > 100 µM | TGI [45]: > 100 µM | TGI [46]: > 100 µM | TGI [47]: > 100 µM | TGI [48]: > 100 µM

c1ccc2c(c1)CCC/C2=N\OCC1CO1 (configuration not stated)
TGI [1]: > 100 µM | TGI [2]: > 100 µM | TGI [49]: > 100 µM | TGI [3]: > 100 µM | TGI [4]: > 100 µM | TGI [5]: > 100 µM | TGI [6]: > 100 µM | TGI [7]: > 100 µM | TGI [8]: > 100 µM | TGI [9]: > 100 µM | TGI [10]: > 100 µM | TGI [11]: > 100 µM | TGI [12]: > 100 µM | TGI [13]: > 100 µM | TGI [15]: > 100 µM | TGI [16]: > 100 µM | TGI [17]: 98.9 µM | TGI [50]: > 100 µM | TGI [18]: > 100 µM | TGI [51]: > 100 µM | TGI [19]: > 100 µM | TGI [20]: > 100 µM | TGI [21]: > 100 µM | TGI [22]: > 100 µM | TGI [23]: > 100 µM | TGI [24]: > 100 µM | TGI [25]: > 100 µM | TGI [26]: > 100 µM | TGI [27]: > 100 µM | TGI [28]: > 100 µM | TGI [29]: > 100 µM | TGI [30]: > 100 µM | TGI [31]: > 100 µM | TGI [52]: > 100 µM | TGI [32]: 92.1 µM | TGI [33]: > 100 µM | TGI [34]: > 100 µM | TGI [35]: > 100 µM | TGI [36]: > 100 µM | TGI [37]: > 100 µM | TGI [53]: > 100 µM | TGI [39]: > 100 µM | TGI [54]: > 100 µM | TGI [55]: > 100 µM | TGI [40]: > 100 µM | TGI [41]: > 100 µM | TGI [56]: > 100 µM | TGI [42]: > 100 µM | TGI [43]: > 100 µM | TGI [44]: > 100 µM | TGI [45]: > 100 µM | TGI [46]: > 100 µM | TGI [47]: > 100 µM | TGI [48]: > 100 µM
